Reference: patent US12398142B2, “Abelson non-tyrosine kinase compounds for the treatment of neurodegenerative diseases” (Emory University, priority 2019, dated 2025)
pIC50: −log10 of the molar value. Read-outs that look alike come from different tables or passages of the source.

Tests used:
CYP2D6 = CYP2D6 (Homo sapiens (Human), UniProt P10635); assay: CYP2D6 IC50; format: in vitro ADME; settings: unit given as mM
ABL1 = ABL1 (Homo sapiens (Human), UniProt P00519); assay: Kinase profiling, ABL1 10-dose IC50; format: biochemical
CYP3A4 = CYP3A4 (Homo sapiens (Human), UniProt P08684); assay: CYP3A4 IC50; format: in vitro ADME; settings: unit given as mM
hERG = hERG (Homo sapiens (Human), UniProt Q12809); assay: in vitro; settings: for SI / selectivity ratio at 4 h: human, pH 7.5; for IC50: hERG IC50, summary table, unit given as mM
Procedure: Compounds were prepared as 10 mM DMSO stock and stored at −80° C.
Assay Format: The assay is based on the competition of fluorescently labeled Tracer binding to the membrane preparation containing hERG.
Assay conditions: 1 nM Predictor™ hERG Tracer Red; 1X Predictor™ hERG Membrane
Assay Procedure: Compounds in DMSO were added into the Membrane mixture by using Acoustic Technology. Tracer was added, and gentled mixed in the dark. FP was measured after 4 hours incubation at room temperature and mP calculated.

[1] = 10 μM ATP, second run (CD-1-051, ZD-3-167, CD-1-067), read-out: Compound IC50 ABL1 Data 1
[2] = 10 μM ATP, second run, read-out: Compound IC50 ABL1 Data 2
[3] = summary table, read-out: Abl1 IC50
[4] = 10 μM ATP, second run, average of duplicates, read-out: Compound IC50 ABL1 Avg
[5] = Average hERG (IC50), second run, average
[6] = IC50 of Tracer Binding hERG Data 1, second run
[7] = IC50 of Tracer Binding hERG Data 2, second run
[8] = 10 μM ATP, first run (TK3-141, TK3-144, CD-1-002), read-out: Compound IC50 ABL1 Data 1
[9] = 10 μM ATP, first run, average of duplicates, read-out: Compound IC50 ABL1 Avg
[10] = 10 μM ATP, first run, read-out: Compound IC50 ABL1 Data 2
[11] = IC50 of Tracer Binding hERG AVERAGE, first run, average of duplicates
[12] = IC50 of Tracer Binding hERG Data 1, first run, 4 hours incubation
[13] = IC50 of Tracer Binding hERG Data 2, first run

Sequence of CYP3A4 (P08684 whole entry, species assumed): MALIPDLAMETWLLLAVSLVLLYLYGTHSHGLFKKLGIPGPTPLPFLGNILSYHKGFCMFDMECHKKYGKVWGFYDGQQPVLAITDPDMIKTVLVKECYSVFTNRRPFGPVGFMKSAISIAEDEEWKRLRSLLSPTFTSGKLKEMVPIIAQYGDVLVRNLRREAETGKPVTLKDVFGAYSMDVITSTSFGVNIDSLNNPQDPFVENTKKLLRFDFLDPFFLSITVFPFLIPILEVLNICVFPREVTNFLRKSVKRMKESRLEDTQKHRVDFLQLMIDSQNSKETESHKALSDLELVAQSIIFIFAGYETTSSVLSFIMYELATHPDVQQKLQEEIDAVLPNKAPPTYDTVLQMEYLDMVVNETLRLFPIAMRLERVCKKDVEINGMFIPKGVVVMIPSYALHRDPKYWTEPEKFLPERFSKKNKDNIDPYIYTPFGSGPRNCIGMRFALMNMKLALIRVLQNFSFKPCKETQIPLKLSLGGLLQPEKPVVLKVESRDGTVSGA
Sequence of ABL1 (P00519 whole entry): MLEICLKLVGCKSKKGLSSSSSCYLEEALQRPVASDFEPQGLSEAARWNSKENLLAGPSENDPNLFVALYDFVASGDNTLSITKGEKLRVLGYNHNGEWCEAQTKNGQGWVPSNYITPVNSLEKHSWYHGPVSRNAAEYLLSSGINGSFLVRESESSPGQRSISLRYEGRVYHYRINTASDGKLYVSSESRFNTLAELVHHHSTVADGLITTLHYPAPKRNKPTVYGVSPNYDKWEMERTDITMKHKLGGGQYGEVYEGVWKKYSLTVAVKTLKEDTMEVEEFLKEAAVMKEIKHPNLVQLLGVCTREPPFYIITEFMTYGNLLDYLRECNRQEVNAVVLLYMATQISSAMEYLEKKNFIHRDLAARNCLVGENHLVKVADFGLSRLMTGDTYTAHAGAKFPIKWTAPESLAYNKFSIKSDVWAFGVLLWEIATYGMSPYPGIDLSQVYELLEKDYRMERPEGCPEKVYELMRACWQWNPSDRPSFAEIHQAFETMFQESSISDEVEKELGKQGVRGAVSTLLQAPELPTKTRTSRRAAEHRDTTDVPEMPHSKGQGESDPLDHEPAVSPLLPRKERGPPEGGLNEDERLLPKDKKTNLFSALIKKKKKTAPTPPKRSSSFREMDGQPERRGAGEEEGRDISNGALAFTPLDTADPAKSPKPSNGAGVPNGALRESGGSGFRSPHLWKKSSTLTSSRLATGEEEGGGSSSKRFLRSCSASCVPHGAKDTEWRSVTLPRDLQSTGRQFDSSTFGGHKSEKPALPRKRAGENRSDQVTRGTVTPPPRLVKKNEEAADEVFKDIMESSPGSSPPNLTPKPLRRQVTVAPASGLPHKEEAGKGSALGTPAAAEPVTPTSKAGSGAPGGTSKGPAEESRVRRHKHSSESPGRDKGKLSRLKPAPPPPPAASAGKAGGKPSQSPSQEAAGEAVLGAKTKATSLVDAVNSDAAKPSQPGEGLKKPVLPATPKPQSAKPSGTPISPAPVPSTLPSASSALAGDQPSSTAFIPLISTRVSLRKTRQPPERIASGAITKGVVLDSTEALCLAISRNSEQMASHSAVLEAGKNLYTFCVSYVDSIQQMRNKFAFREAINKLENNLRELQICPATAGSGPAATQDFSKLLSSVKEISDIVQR
Sequence of CYP2D6 (P10635 whole entry, species assumed): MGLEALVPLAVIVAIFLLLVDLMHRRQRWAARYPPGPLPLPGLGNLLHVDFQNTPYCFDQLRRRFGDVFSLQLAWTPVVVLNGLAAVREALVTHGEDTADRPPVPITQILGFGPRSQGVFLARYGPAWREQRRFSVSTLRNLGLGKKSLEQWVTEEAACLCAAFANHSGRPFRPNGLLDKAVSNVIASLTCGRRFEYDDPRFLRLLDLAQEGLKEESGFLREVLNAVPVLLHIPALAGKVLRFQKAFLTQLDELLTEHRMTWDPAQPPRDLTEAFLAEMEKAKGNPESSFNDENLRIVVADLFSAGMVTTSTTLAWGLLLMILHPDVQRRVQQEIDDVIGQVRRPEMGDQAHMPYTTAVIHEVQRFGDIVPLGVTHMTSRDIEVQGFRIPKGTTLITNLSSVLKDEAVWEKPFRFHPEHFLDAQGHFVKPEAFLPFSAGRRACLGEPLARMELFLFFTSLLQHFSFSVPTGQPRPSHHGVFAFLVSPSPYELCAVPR
Sequence of hERG (Q12809 whole entry): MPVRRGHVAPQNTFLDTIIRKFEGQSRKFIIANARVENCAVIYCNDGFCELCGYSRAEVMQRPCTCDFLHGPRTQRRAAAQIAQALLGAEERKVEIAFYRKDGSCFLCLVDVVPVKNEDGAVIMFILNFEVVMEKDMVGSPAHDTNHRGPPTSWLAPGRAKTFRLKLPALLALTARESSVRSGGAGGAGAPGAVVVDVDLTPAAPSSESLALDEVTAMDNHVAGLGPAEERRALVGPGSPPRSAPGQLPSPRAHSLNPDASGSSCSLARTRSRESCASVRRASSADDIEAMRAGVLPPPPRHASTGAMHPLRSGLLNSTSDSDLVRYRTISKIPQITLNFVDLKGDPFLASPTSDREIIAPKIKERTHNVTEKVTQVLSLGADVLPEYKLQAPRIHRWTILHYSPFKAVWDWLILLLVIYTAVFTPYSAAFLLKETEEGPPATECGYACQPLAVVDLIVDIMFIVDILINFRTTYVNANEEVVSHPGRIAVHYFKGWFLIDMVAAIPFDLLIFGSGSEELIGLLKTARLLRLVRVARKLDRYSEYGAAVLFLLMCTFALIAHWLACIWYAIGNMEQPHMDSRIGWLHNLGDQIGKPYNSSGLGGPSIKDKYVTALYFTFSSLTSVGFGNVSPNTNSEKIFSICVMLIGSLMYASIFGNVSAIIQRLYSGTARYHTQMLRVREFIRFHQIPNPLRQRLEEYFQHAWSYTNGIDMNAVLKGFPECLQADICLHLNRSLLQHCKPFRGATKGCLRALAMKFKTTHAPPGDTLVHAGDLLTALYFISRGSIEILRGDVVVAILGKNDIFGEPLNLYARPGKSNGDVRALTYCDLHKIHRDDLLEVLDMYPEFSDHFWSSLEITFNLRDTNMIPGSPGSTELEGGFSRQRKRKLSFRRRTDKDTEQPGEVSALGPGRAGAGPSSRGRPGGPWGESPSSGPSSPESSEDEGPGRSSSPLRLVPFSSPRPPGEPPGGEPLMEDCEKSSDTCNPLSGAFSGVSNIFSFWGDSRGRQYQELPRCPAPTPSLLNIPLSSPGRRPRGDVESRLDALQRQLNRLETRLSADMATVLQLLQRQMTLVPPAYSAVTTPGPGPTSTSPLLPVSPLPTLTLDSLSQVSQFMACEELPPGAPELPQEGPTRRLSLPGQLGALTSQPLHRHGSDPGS

| Structure (SMILES) | IC50 (CYP2D6) | pIC50 (ABL1; [1]) | pIC50 (ABL1; [2]) | pIC50 (ABL1; [3]) | IC50 (CYP3A4) | pIC50 (ABL1; [4]) | pIC50 (ABL1; [8]) | pIC50 (ABL1; [9]) | pIC50 (ABL1; [10]) | SI (hERG) | pIC50 (hERG; [5]) | pIC50 (hERG; [6]) | pIC50 (hERG; [7]) | IC50 (hERG) | selectivity ratio at 4 h (hERG) | pIC50 (hERG; [11]) | pIC50 (hERG; [12]) | pIC50 (hERG; [13]) |
| --- | --- | --- | --- | --- | --- | --- | --- | --- | --- | --- | --- | --- | --- | --- | --- | --- | --- | --- |
| Cc1ccc(C(=O)Nc2ccc(CN3CCc4cn[nH]c4C3)c(Cl)c2)cc1C#Cc1cnc2cccnn12 [CD-1-051, N-[3-chloro-4-(1,4,5,7-tetrahydropyrazolo[3,4-c]pyridin-6-ylmethyl)phenyl]-3-(2-imidazo[1,2-b]pyridazin-3-ylethynyl)-4-methyl-benzamide] | 0.03 mM | 7.96 | 8.05 | 8.00 | 0.00557 mM | 8.00 |  |  |  | 506 | 5.30 | 5.42 | 5.21 | 5020 nM | 506 |  |  |  |
| Cc1ccc(C(=O)Nc2ccc(CN3CCN(CCO)CC3)c(C3CC3)c2)cc1C#Cc1cnc2cccnn12 [TK3-144, N-[3-cyclopropyl-4-[[4-(2-hydroxyethyl)piperazin-1-yl]methyl]phenyl]-3-(2-imidazo[1,2-b]pyridazin-3-ylethynyl)-4-methyl-benzamide] | 0.00199 mM |  |  | 9.41 | 0.0118 mM |  | 9.38 | 9.41 | 9.43 | 263 |  |  |  | 103 nM |  | 6.99 | 6.98 | 6.99 |
| COCCN1CCN(Cc2ccc(NC(=O)c3ccc(C)c(C#Cc4cnc5cccnn45)c3)cc2C2CC2)CC1 [CD-1-002, N-[3-cyclopropyl-4-[[4-(2-methoxyethyl)piperazin-1-yl]methyl]phenyl]-3-(2-imidazo[1,2-b]pyridazin-3-ylethynyl)-4-methyl-benzamide] | 0.0248 mM |  |  | 9.19 | 0.0128 mM |  | 9.16 | 9.19 | 9.22 | 126 |  |  |  | 81 nM |  | 7.09 | 7.21 | 7.00 |

Now from value to compound, other results behind:

| IC50 (CYP2D6) | pIC50 (ABL1; [1]) | pIC50 (ABL1; [2]) | pIC50 (ABL1; [3]) | IC50 (CYP3A4) | pIC50 (ABL1; [4]) | pIC50 (ABL1; [8]) | pIC50 (ABL1; [9]) | pIC50 (ABL1; [10]) | Structure (SMILES) | SI (hERG) | pIC50 (hERG; [5]) | pIC50 (hERG; [6]) | pIC50 (hERG; [7]) | IC50 (hERG) | selectivity ratio at 4 h (hERG) | pIC50 (hERG; [11]) | pIC50 (hERG; [12]) | pIC50 (hERG; [13]) |
| --- | --- | --- | --- | --- | --- | --- | --- | --- | --- | --- | --- | --- | --- | --- | --- | --- | --- | --- |
| 0.00339 mM | < 7.52 | < 7.52 | < 7.52 | 0.00461 mM |  |  |  |  | Cc1ccc(C(=O)Nc2ccc(CN3Cc4ccc(O)cc4C3)c(Cl)c2)cc1C#Cc1cnc2cccnn12 [CD-1-067, N-(3-chloro-4-((5-hydroxyisoindolin-2-yl)methyl)phenyl)-3-(imidazo [1,2-b]pyridazin-3-ylethynyl)-4-methylbenzamide] | <26 |  |  |  |  |  |  |  |  |
| > 0.1 mM |  |  |  | 0.00058 mM |  |  |  |  | Cc1cn(-c2cc(NC(=O)c3ccc(C)c(Nc4nccc(-c5cccnc5)n4)c3)cc(C(F)(F)F)c2)cn1 [Nilotinib, reference compound] |  |  |  |  |  |  |  |  |  |
| 0.0137 mM | 7.95 | 8.00 | 7.97 | 0.00728 mM | 7.97 |  |  |  | Cc1ccc(C(=O)Nc2ccc(CN3Cc4cn[nH]c4C3)c(Cl)c2)cc1C#Cc1cnc2cccnn12 [ZD-3-167, N-[3-chloro-4-(4,6-dihydro-1H-pyrrolo[3,4-c]pyrazol-5-ylmethyl)phenyl]-3-(2-imidazo[1,2-b]pyridazin-3-ylethynyl)-4-methyl-benzamide] | >943 | 4.99 | < 5.00 | < 5.00 | > 10000 nM | 963 |  |  |  |
| 0.00102 mM |  |  | 9.52 | 0.00801 mM |  | 9.51 | 9.53 | 9.55 | Cc1ccc(C(=O)Nc2ccc(CN3CCN(CCO)CC3)c(Cl)c2)cc1C#Cc1cnc2cccnn12 [TK3-141, N-[3-chloro-4-[[4-(2-hydroxyethyl)piperazin-1-yl]methyl]phenyl]-3-(2-imidazo[1,2-b]pyridazin-3-ylethynyl)-4-methyl-benzamide] | 1158 |  |  |  | 345 nM |  | 6.46 | 6.86 | 6.26 |
